Patent US7576225B2, “6R-(3,6-dideoxy-L-arabino-hexopyranosyloxy) heptanoic acid, preparation process for the same and dauer effect thereof” (KDR Biotech. Co. Ltd., priority 2004, dated 2009)

Test system: C. elegance
Assay: Measurement of dauer formation effect activity
Type: in vivo, Caenorhabditis elegance
Experimental: Next, dauer formation effect of the compound of 6R-(3,6-dideoxy-L-arabino-hexopyranosyloxy)heptanoic acid (I), which is synthesized according to the present process of the invention, is measured using C. elegance.
That is, the dauer formation effect of the synthetic pheromone is measured using C. elegance tinder different feed, temperature and crowd density conditions from each other.
Although it should be passed from an L2 first half step or L3 second half step to an adult step in a condition where the feed and temperature (15-25° C.) are proper and the crowd density is low, when the synthetic pheromone is mixed, the step goes to dauer larva stage.
For comparison, seven C. elegances in the dauer larva and one C. elegance in the adult step are comparatively observed. […] In Picture 1, it can be noted that the C. elegance is not grown without moving.
To identify the dauer formation effect of the inventive pheromone, an activity is measured after the pheromone compound is supplied to S. basal agar culture medium without peptone (Vowels and Thomas, Genetics 130: 105-123, 1992).
The dauer formation effect activity of the inventive compound with respect to C. elegance is shown as Table 3.

Question: Which results are given for `C[C@H](CCCCC(=O)O)O[C@@H]1O[C@@H](C)[C@H](O)C[C@H]1O` [synthetic pheromone, 6R-(3,6-dideoxy-L-arabino-hexopyranosyloxy)heptanoic acid]?
Answer: dauer formation effect (320 μg/plate of the synthetic pheromone, C. elegance): 100%; dauer formation effect (observation of larvae) (synthetic pheromone mixed in, proper feed and temperature (15-25° C.), low crowd density): greatly affects the dauer formation effect
